Assay results: patent US7199126B2, “Compositions and treatments for inhibiting kinase and/or HMG-CoA reductase” (Pharmix Corporation, priority 2004, dated 2007)

Target: T1, human recombinant p38α protein kinase (Homo sapiens, UniProt Q16539)
T1 construct: purchased UBI (Upstate Biotechnology Inc.) 14–251; host or cells: E. coli
Assay: Human p38α MAP kinase inhibition assay (cell-free, phosphorylation of myelin basic protein)
Assay type: biochemical
Description: Candidate compound and/or vehicle was preincubated with 0.075 μg/mL enzyme in modified HEPES buffer pH 7.4 at 25° C. for 15 minutes. The reaction was initiated by addition of 100 μM ATP and allowed to proceed for another 60 minutes. The reaction was terminated by aspirating the solution. Phosphorylated MBP was detected by incubation with a mouse monoclonal IgG2a anti-phosphoMBP antibody. Bound anti-phosphoMBP antibody was quantitated by incubation with a HRP conjugated goat anti-mouse IgG.

T1 sequence (Q16539 whole entry): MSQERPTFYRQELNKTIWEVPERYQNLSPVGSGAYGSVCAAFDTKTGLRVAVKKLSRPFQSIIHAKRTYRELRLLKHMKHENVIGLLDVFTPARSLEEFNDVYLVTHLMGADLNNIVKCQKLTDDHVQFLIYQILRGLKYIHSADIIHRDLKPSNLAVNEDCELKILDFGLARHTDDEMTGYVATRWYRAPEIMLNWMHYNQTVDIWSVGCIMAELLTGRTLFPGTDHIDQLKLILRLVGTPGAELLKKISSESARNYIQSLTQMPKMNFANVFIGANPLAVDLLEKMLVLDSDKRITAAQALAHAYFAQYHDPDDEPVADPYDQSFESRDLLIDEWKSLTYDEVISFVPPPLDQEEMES

IC50: > 100 µM
SMILES: CCC(C)(C)C(=O)O[C@H]1C[C@@H](C)C=C2C=C[C@H](C)[C@H](CC[C@@H]3C[C@@H](O)CC(=O)O3)[C@H]21 [Simvastatin sodium]
